{"source": "patent US8247404B2", "about": "“Derivatives of 2-oxoalkyl-1-piperazin-2-one, preparation method thereof and therapeutic use of same” (Sanofi, priority 2008, dated 2012)", "key": {"[1]": {"system": "human neuroblastoma strains SH-SY-5Y and SK-N-BE Bep 75", "test": "Measurement of apoptosis (NGF-induced, cell death detection ELISA)", "assay_type": "cell-based", "conditions": "SH-SY5Y, NGF 10 ng/ml, cell strain not given, read-out: IC50, inhibitory activity on NGF-induced apoptosis", "procedure": "The SH-SY-5Y strain (human neuroblastoma) is cultured conventionally in a DMEM culture medium (Dulbecco's Modified Eagle's Medium) (Gibco BRL, France) containing FCS (5%) (foetal calf serum) (Boehringer Mannheim, Germany), sodium pyruvate (1 mM) and glutamine (4 mM) in culture flasks coated with collagen (Becton Dickinson, France).\n(§1) The SK-N-BE parent strain (human neuroblastoma) and the Bep 75 clone, stably expressing the whole form of the human p75^NTRreceptor (SK-N-BE Bep 75) are cultured conventionally in a RPMI culture medium containing FCS (5%), sodium pyruvate (1 mM) and glutamine (4 mM). For the SK-N-BE Bep 75 cells, hygromycin (200 μl/20 ml of medium) is added as selection agent.\nThe cells (human neuroblastoma strains SH-SY-5Y and SK-N-BE Bep 75) are placed in 35 mm diameter Petri dishes (Biocoat collagen I), (10^5cells/well) in an appropriate culture medium containing 5% of FCS for 24 h. […] The degrees of apoptosis are measured 48 hours after the treatments in the case of the SH-SY-5Y strain, and 24 hours after the treatments in the case of the SK-N-BE Bep 75 strain, by quantification of the DNA fragment-associated cytoplasmic histones (cell death detection ELISA, Boehringer Mannheim, Germany). The degrees of apoptosis are expressed as amount of oligonucleosomes/10^5cells. […]"}, "p75NTR receptor [2]": {"molecular_target": "T1, p75NTR receptor (Homo sapiens, UniProt P08138)", "T1 sequence (P08138 29-427)": "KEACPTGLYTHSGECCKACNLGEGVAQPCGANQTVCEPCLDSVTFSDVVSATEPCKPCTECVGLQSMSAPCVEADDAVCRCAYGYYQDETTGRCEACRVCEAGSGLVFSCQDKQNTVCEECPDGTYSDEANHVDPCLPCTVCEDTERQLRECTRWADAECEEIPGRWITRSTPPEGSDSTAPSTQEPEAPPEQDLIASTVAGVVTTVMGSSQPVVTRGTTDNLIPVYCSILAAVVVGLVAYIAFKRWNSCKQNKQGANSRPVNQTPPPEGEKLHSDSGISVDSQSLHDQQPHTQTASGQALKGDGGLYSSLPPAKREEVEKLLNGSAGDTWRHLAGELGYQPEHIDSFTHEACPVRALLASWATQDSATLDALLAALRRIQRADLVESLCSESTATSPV", "test": "Binding of 125I NGF to the p75NTR receptor (competition, SK-N-BE Bep 75 cell suspension)", "set-up": "the Bep 75 clone, stably expressing the whole form of the human p75^NTRreceptor; expressed in transfected cells; host or cells: SK-N-BE Bep 75 (human neuroblastoma clone, hygromycin selection)", "conditions": "SK-N-BE Bep 75 cells; 125I NGF 0.3 nM", "procedure": "as §1\nStudy of the binding of the ^125I NGF to the p75^NTRreceptor\nThe NGF binding study (nerve grown factor radiolabelled with iodine-125, Amersham—2000 Ci/mmol) is carried out on a cell suspension of the SK-N-BE Bep 75 strain in accordance with the method described by Weskamp (Neuron, 1991, 6, 649-663). The nonspecific binding is determined by measuring the total binding after one hour of pre-incubation with the cells at 37° C. in the presence of non-radiolabelled NGF (1 μM). The specific binding is calculated by the difference between the total binding measurement and the non-specific binding measurement. The competition experiments are carried out using an iodinated NGF (^125I NGF) concentration of 0.3 nM."}, "p75NTR receptor [3]": {"molecular_target": "T1, p75NTR receptor", "test": "Dimerization of the p75NTR receptor independently of its ligand (soluble p75NTR-alkaline phosphatase binding to SK-N-BE Bep 75 cells)", "set-up": "the Bep 75 clone, stably expressing the whole form of the human p75^NTRreceptor; a soluble form of the p75^NTRreceptor (extracellular part of the receptor); expressed in transfected cells; host or cells: SK-N-BE Bep 75 cells (membrane receptor); transiently transfected HEK293 cells (secreted soluble p75NTR-alkaline phosphatase, used as culture supernatant)", "conditions": "soluble p75NTR-alkaline phosphatase 10 nM, 1 h preincubation at 37° C.", "procedure": "as §1\nStudy of the dimerization of the p75^NTRreceptor independently of its ligand\nThe p75^NTRreceptor dimerization study is carried out on a cell suspension of the SK-N-BE Bep 75 strain. The cells (2.5 10^4cells/well) are placed in wells (96-well plate) for 24 h, and then preincubated for 1 h at 37° C. in the presence or absence of the compounds according to the invention. Supernatant is then added, this supernatant being derived from the culture of HEK293 human cells of renal origin expressing, after 48 h of transfection, and secreting a soluble form of the p75^NTRreceptor (extracellular part of the receptor) coupled to an alkaline phosphatase, at the final concentration of 10 nM. The quantification of the specific binding of the soluble p75^NTRreceptor to the receptor present on SK-N-BE Bep 75 cells is determined by measuring the alkaline phosphatase enzymatic activity after incubation of the cells for 1 hour at 37° C. in the presence of the supernatant. After filtration and transfer of the filters into 24-well plates, the alkaline phosphatase activity is determined by adding CDP-Star chemiluminescent substrate (ready-to-use, Roche)."}}, "note": "Structures can show the parent of a compound that is named as a salt."}
{"smiles": "O=C(CN1CCN(c2ccc(C(F)(F)F)cn2)C(=O)C1)N1CC=C(c2ccc(Cl)c(C(F)(F)F)c2)CC1", "note": "[Compound 1, 4-{2-[4-(4-chloro-3-trifluoromethylphenyl)-3,6-dihydro-2H-pyridin-1-yl]-2-oxoethyl}-1-(5-trifluoromethylpyridin-2-yl)piperazin-2-one]", "values": [{"measurement": "IC50", "setting": "[1]", "value": 1.61, "unit": "nM"}, {"measurement": "IC50", "setting": "p75NTR receptor [2]", "value": 5.2, "unit": "nM"}, {"measurement": "IC50", "setting": "p75NTR receptor [3]", "value": 1.34, "unit": "nM"}]}
{"smiles": "O=C(CN1CCN(c2ccccn2)C(=O)C1)N1CC=C(c2ccc(Cl)c(C(F)(F)F)c2)CC1", "note": "[Compound 5, 4-{2-[4-(4-chloro-3-trifluoromethylphenyl)-3,6-dihydro-2H-pyridin-1-yl]-2-oxoethyl}-1-pyridin-2-ylpiperazin-2-one]", "values": [{"measurement": "IC50", "setting": "[1]", "value": 52, "unit": "nM"}]}
{"smiles": "O=C(CN1CCN(c2ccc(C(F)(F)F)cn2)C(=O)C1)N1CC=C(c2ccc(Cl)c(C(F)(F)F)c2)CC1", "note": "(as salt: HCl) [Compound 1, 4-{2-[4-(4-chloro-3-trifluoromethylphenyl)-3,6-dihydro-2H-pyridin-1-yl]-2-oxoethyl}-1-(5-trifluoromethylpyridin-2-yl)piperazin-2-one]", "values": [{"measurement": "melting point", "value": "210 to 211", "unit": "°C"}]}
{"smiles": "Cc1ccc(N2CCN(CC(=O)N3CC=C(c4ccc(Cl)c(C(F)(F)F)c4)CC3)CC2=O)nc1", "note": "[Compound 2, 4-{2-[4-(4-chloro-3-trifluoromethylphenyl)-3,6-dihydro-2H-pyridin-1-yl]-2-oxoethyl}-1-(5-methylpyridin-2-yl)piperazin-2-one]", "values": [{"measurement": "IC50", "setting": "p75NTR receptor [3]", "value": 3.88, "unit": "nM"}]}
{"smiles": "O=C(CN1CCN(c2ccccn2)C(=O)C1)N1CC=C(c2ccc(Cl)c(C(F)(F)F)c2)CC1", "note": "(as salt: HCl) [Compound 5, 4-{2-[4-(4-chloro-3-trifluoromethylphenyl)-3,6-dihydro-2H-pyridin-1-yl]-2-oxoethyl}-1-pyridin-2-ylpiperazin-2-one]", "values": [{"measurement": "melting point", "value": "160 to 163", "unit": "°C"}]}
{"smiles": "Cc1ccc(N2CCN(CC(=O)N3CC=C(c4ccc(Cl)c(C(F)(F)F)c4)CC3)CC2=O)nc1", "note": "(as salt: HCl) [Compound 2, 4-{2-[4-(4-chloro-3-trifluoromethylphenyl)-3,6-dihydro-2H-pyridin-1-yl]-2-oxoethyl}-1-(5-methylpyridin-2-yl)piperazin-2-one]", "values": [{"measurement": "melting point", "value": "236 to 239", "unit": "°C"}]}
{"smiles": "O=C(CN1CCN(c2ccc(C(F)(F)F)cn2)C(=O)C1)N1CC=C(c2ccc(Cl)cc2)CC1", "note": "[Compound 3, 4-{2-[4-(4-chlorophenyl)-3,6-dihydro-2H-pyridin-1-yl]-2-oxoethyl}-1-(5-trifluoromethylpyridin-2-yl)piperazin-2-one]", "values": [{"measurement": "melting point", "value": "141 to 143", "unit": "°C"}, {"measurement": "IC50", "setting": "p75NTR receptor [2]", "value": 0.1, "unit": "nM"}, {"measurement": "IC50", "setting": "p75NTR receptor [3]", "value": 0.11, "unit": "nM"}]}
